# Test results as given in patent publication US20080227738A1, “Compositions and methods for cell dedifferentiation and tissue regeneration” (University of Utah Research Foundation, priority 2000, published 2008).
# What was measured:
# [1] = target: T1, epidermal growth factor receptor (Homo sapiens, UniProt P00533); settings: mammalian cells; cited from earlier work
# T1 construct: host or cells: mammalian cells (not specified)
# insulin receptor = target: T2, insulin receptor (Homo sapiens, UniProt P06213); settings: mammalian cells; cited from earlier work
# T2 construct: host or cells: mammalian cells (not specified)
# T2 sequence (P06213 28-1382): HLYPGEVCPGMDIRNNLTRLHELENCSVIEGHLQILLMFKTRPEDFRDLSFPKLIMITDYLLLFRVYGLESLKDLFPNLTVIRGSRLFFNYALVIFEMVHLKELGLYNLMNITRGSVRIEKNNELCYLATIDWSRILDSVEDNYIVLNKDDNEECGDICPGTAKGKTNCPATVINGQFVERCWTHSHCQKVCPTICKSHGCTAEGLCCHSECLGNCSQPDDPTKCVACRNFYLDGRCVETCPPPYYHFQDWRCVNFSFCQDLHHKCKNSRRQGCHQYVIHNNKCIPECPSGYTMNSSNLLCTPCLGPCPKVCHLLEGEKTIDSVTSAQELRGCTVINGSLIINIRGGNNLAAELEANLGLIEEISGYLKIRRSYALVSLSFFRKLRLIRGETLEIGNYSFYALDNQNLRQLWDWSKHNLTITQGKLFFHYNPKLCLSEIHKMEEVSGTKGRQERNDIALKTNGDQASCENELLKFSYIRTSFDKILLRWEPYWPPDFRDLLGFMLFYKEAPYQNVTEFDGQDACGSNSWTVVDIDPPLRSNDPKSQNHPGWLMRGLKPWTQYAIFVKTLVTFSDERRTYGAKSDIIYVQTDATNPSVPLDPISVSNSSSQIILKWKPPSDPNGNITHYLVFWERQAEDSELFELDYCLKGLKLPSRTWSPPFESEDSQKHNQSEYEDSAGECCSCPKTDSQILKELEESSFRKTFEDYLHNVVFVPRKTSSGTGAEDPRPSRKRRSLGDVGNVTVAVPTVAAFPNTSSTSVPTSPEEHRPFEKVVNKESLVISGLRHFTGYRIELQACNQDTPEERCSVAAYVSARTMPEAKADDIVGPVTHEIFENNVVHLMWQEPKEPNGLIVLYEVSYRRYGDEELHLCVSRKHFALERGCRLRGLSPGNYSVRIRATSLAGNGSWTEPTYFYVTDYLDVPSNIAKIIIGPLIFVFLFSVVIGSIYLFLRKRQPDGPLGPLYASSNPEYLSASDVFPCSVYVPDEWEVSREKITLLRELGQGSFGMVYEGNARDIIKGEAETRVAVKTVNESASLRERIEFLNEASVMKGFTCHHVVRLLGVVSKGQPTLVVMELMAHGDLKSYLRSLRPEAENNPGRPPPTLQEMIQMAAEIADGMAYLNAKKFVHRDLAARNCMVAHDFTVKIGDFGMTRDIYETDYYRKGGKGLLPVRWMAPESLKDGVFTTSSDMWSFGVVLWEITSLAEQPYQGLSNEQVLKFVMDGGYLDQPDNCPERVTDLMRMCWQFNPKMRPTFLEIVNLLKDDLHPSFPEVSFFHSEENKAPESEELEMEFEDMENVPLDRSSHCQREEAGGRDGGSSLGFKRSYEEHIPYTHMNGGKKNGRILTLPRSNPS
# zebrafish embryos = assay: Application to developing zebrafish embryos; type: in vivo; settings: at the IC50 concentration (printed 10-20 μl)
# Procedure: The IC50 of Ri with respect to Fgfrl activity in mammalian cells was shown previously to be […] (Mohammadi et al., 1997). […] Such embryos appear remarkably similar to those injected with mRNA encoding a dominant-negative Fgfrl (Griffin et al., 1995).
# serine threonine kinases = settings: cited from earlier work
# [2] = Tolerability of inhibitor solution in adult zebrafish; type: in vivo; settings: 1.7 μM or 17 μM in fish water, 0.01% DMSO
# Procedure: (§1) SU5402 (Ri; SUGEN, South San Francisco, Calif.) was dissolved in dimethylsulfoxide (DMSO) and added to fish water at a final concentration of 1.7 μM or 17 μM (0.01% DMSO). Up to 10 fish were treated in one liter of water, and tanks were maintained in the dark at 31-33° C. with SU5402 solutions replaced every 24 hours.
# [3] = target: Flkl, a vascular endothelial growth factor receptor (Homo sapiens, UniProt P35968); settings: cited from earlier work
# Sequence of Flkl, a vascular endothelial growth factor receptor (P35968 20-1356): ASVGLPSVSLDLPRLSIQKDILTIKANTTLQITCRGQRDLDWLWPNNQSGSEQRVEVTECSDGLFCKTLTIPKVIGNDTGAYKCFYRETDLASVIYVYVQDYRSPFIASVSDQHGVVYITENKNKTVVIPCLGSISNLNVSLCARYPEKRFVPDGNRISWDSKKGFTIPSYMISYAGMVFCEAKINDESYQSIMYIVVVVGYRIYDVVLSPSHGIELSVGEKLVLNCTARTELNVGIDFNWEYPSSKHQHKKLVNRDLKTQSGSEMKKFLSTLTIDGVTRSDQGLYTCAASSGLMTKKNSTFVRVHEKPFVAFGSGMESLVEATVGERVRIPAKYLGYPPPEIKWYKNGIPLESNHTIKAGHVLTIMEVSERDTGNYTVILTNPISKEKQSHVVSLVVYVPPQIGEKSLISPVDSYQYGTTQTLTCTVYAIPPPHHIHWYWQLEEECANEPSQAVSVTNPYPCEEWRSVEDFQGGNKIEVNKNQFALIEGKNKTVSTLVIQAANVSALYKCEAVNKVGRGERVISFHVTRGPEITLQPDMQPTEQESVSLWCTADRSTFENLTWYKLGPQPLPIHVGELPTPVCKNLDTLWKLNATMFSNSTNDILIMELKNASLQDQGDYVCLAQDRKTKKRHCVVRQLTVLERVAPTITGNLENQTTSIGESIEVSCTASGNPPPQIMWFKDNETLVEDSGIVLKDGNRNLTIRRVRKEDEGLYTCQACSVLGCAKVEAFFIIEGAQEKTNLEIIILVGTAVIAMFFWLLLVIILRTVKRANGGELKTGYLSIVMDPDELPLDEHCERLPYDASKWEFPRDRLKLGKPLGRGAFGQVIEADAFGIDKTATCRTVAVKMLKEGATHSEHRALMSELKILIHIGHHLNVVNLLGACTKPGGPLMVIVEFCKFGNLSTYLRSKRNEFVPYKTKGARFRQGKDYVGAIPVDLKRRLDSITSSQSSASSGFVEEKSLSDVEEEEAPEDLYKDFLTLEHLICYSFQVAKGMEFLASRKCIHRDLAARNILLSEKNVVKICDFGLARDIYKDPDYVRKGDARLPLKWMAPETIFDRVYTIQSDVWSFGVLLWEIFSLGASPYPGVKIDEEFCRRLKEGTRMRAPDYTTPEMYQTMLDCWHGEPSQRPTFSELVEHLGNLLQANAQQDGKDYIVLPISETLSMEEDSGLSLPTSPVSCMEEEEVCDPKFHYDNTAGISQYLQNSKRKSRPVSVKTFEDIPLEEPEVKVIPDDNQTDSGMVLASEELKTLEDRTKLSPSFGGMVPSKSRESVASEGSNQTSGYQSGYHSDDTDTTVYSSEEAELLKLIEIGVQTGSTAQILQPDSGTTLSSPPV
# C2C12 myotubes = assay: Characterization of RNLE activity: pretreated extract, BrdU S phase reentry in C2C12 myotubes; type: cell-based, mouse; settings: C2C12 myotubes with RNLE
# Procedure: C2C12 myotubes were plated at low density in DM as described above. Regeneration extract was treated in one of three ways: (1) boiled for 5 minutes; (2) digested with 1% trypsin for 30 minutes at 37° C.; or (3) taken through several freeze/thaw cycles. In three separate experiments, the treated extracts were applied to cultured myotubes at a concentration of 0.3 mg/ml with media and extract changed daily. Immediately after the extract was digested with 1% trypsin, the trypsin was inactivated by dilution in DM in which the cells were cultured. In the freeze/thaw experiments, extract activity was tested after both 2 and 3 freeze/thaw cycles. The effect of the pretreated extracts on myotube S phase reentry was assessed after 4 days of treatment by performing BrdU incorporation assays. The results were compared to BrdU incorporation in myotubes cultured in DM containing RNLE (positive control) and myotubes cultured in DM alone or DM containing nonRNLE (negative controls).
# The dedifferentiation signal(s) found in the RNLE could belong to a number of different types of biomolecules, including proteins, lipids, nucleic acids, and polysaccharides. To characterize the nature of one or more of the active components of the RNLE, the inventors subjected the extract to a number of different conditions. […]
# zebrafish fin regenerate [4] = assay: Whole mount in situ hybridization of marker genes in zebrafish fin regenerates; type: in vivo
# Excerpt: To generate antisense RNA probes with a dioxigenin labeling kit (Boehringer Mannheim), a 2.8 kb fgfr1 cDNA fragment, a 1.7 kb fgfr2 cDNA fragment, a 0.6 kb fgfr3 cDNA fragment, a 1.5 kb fgfr4 cDNA fragment (Thisse et al., 1995), a 1.2 kb msxb cDNA fragment, a 2.0 kb msxc cDNA (Akimenko et al., 1995), a 0.6 kb fgf8(ace) cDNA fragment (Reifers et al., 1998), a 2.2 kb fgf4.1 cDNA (Draper et al., 1999), a 2.4 kb wfgf cDNA (Draper et al., 1999), a 3.8 kb β-catenin cDNA (Kelly et al., 1995), a 2.6 kb flkl cDNA fragment (Liao et al., 1997), and a 1.8 kb shh cDNA (Krauss et al., 1993) were used. Fragments containing zebrafish fgfr cDNA sequences were isolated by degenerate PCR using known fgfr tyrosine kinase domain sequences of other species. The assignment of fgfr genes was based on homology comparisons; these sequences have been deposited in Genbank.
# Fin regenerates were fixed overnight at 4° C. in 4% paraformaldehyde in phosphate-buffered saline (PBS), washed briefly in 2 changes of PBS, and transferred to methanol for storage at −20° C. Fins were rehydrated stepwise through ethanol in PBS and then washed in 4 changes of PBS-0.1% polyoxyethylenesorbitan monolaurate (Tween-20; PBT). Then, fins were incubated with 10 μg/ml proteinase K in PBT for 30 minutes and rinsed twice in PBT before 20 minutes refixation. After five washes with PBT, fins were prehybridized at 65° C. for one hour in buffer consisting of 50% formamide, 5×SSC (750 mM NaCl, 75 mM sodium citrate, pH 7.0), 0.1% Tween-20, 50 μg/ml heparin, and 500 μg/ml yeast RNA (pH to 6.0 with citric acid), and then hybridized overnight in hybridization buffer including 0.5 μg/ml dioxigenin-labeled RNA probe. Fins were washed at 65° C. for 10 minutes each in 75% hybridization buffer/25% 2×SSC, 50% hybridization buffer/50% 2×SSC, and 25% hybridization buffer/75% 2×SSC, followed by 2 washes for 30 minutes each in 0.2×SSC at 65° C. Further washes for 5 minutes each were done at room temperature in 75% 0.2×SSC/25% PBT, 50% 0.2×SSC/50% PBT, and 25% 0.2×SSC/75% PBT. After a one hour incubation period in PBT with 2 mg/ml bovine serum albumin, fins were incubated for 2 hours in the same solution with a 1:2000 dilution of fin-preabsorbed, anti-dioxigenin antibody coupled to alkaline phosphatase (Boehringer Mannheim). For the alkaline phosphatase reaction, fins were first washed 3 times in reaction buffer (100 mM Tris-HCl pH 9.5, 50 mM MgCl2, 100 mM NaCl, 0.1% Tween-20, 1 mM levamisol) and then incubated in reaction buffer with 1× nitro blue terazolium/5-bromo-4-chloro-3-indolyl-phosphate (NBT/BCIP) substrate. In general, positive signals were obtained in 0.5-3 hours. Following the staining reaction, fins were washed in several changes of PBT and fixed in 4% paraformaldehyde in PBS. To obtain sections of fin regenerates, fins were first mounted in 1.5% agarose/5% sucrose and then incubated in 30% sucrose overnight. Frozen blocks were sectioned at 14 μm and observed using Nomarski optics.
# For each probe, at least 7 fins were examined for expression at 0, 6, 12, 18, 24, 48, and 96 hours post-amputation. For 18, 24, and 48 hour timepoints with fgfr1, msxb, msxc, and wfgf probes, 25-100 fins were examined in several different experiments. Experiments with sense strand RNA probes were performed with initial antisense experiments to estimate the specificity of signals. To assess gene expression in pharmacologically treated fins, an equal number of untreated fins were also examined.
# To investigate the molecular effects of this outgrowth inhibition by Ri, marker expression was examined following a 24 hour R1 application period. […] Similar effects on msxc expression were observed (n=8). msxb expression was not detected in 24 or 48 hour fin regenerates exposed to R1 for 48 hours (n=18). Thus, Fgf signaling is required for blastema maintenance and regenerative outgrowth, but is not crucial for other processes including melanocyte migration or bone deposition. […]
# [5] = tested on: platelet-derived growth factor receptor; settings: mammalian cells; cited from earlier work
# [6] = tested on: zebrafish caudal fin regenerate; assay: Zebrafish caudal fin regeneration under Fgfr1 inhibitor treatment; type: in vivo
# Procedure: Zebrafish 3-6 months of age were obtained from EKKWill Waterlife Resources (Gibsonton, Fla.) and used for caudal fin amputations. Fish were anaesthetized in tricaine and amputations were made using a razor blade, removing one-half of the fin. Animals were allowed to regenerate for various times in water kept at 31-33° C.; these temperatures facilitate more rapid regeneration than more commonly used temperatures of 25-28° C. (Johnson and Weston, 1995). Fish were then anaesthetized and the fin regenerate was removed for analyses.
# as §1
# To determine if signaling through Fgfrl is required for regeneration, zebrafish were treated for 96 hours with Ri immediately following amputation. Treatment of zebrafish with 1.7 μM Ri (0.5 mg/liter) inhibited fin regeneration to varying degrees.
# To determine if a blastema forms in the absence of Fgf signaling, Ri-treated fin regenerates were examined morphologically.
# Because wfgf and fgfr1 expression domains were maintained in the fin regenerate during outgrowth, and as blastemal cell BrdU incorporation was blocked by Ri, Fgf signaling likely participates in blastemal maintenance/regenerative outgrowth. To test this hypothesis, the effects of Ri on ongoing regenerates were examined.
# zebrafish fin regenerate [7] = assay: BrdU incorporation in regenerating zebrafish fins; type: in vivo; settings: 17 μM
# Procedure: BrdU was dissolved in PBS and fish were treated at a final concentration of 100 μg/ml. For one experiment, fins were amputated and allowed to regenerate for 18 or 24 hours in the absence or presence of 17 μM Ri, with BrdU present during the final 6 hours of regeneration. To test the effects of Ri on proliferation in the established blastema, fins were first allowed to regenerate for 40 hours. Then, untreated fish regenerated an additional 2 hours before a 6 hour incubation with BrdU, while Ri-treated fish underwent a 2 hour R1 preincubation period before a 6 hour period with both Ri and BrdU.
# Fins were collected and fixed in 70% ethanol/2 mM glycine overnight, and 10 μm sections were made from frozen blocks. These sections were stained for BrdU incorporation using a detection kit (Roche; Basel, Switzerland), and counterstained with hematoxylin. Sections from untreated and Ri-treated fins were simultaneously processed and developed. […]
# BrdU incorporation was used to analyze DNA replication and cellular proliferation. […] To determine if blastemal cells underwent DNA replication in the presence of Ri, BrdU incorporation in fins briefly treated with Ri during regenerative outgrowth (40-48 hours postamputation) was analyzed. […]
# [8] = fins regenerated normally 24 or 48 hours, then 24 hour application, of 18 treated fins
# [9] = treated from amputation, msxb: 21 fins, msxc: 8 fins
# [10] = 1.7 μM (0.5 mg/liter), 96 hours from amputation, of 10 fins examined
# [11] = Ri-treated fin regenerates, morphology
# T1 sequence (P00533 25-1210): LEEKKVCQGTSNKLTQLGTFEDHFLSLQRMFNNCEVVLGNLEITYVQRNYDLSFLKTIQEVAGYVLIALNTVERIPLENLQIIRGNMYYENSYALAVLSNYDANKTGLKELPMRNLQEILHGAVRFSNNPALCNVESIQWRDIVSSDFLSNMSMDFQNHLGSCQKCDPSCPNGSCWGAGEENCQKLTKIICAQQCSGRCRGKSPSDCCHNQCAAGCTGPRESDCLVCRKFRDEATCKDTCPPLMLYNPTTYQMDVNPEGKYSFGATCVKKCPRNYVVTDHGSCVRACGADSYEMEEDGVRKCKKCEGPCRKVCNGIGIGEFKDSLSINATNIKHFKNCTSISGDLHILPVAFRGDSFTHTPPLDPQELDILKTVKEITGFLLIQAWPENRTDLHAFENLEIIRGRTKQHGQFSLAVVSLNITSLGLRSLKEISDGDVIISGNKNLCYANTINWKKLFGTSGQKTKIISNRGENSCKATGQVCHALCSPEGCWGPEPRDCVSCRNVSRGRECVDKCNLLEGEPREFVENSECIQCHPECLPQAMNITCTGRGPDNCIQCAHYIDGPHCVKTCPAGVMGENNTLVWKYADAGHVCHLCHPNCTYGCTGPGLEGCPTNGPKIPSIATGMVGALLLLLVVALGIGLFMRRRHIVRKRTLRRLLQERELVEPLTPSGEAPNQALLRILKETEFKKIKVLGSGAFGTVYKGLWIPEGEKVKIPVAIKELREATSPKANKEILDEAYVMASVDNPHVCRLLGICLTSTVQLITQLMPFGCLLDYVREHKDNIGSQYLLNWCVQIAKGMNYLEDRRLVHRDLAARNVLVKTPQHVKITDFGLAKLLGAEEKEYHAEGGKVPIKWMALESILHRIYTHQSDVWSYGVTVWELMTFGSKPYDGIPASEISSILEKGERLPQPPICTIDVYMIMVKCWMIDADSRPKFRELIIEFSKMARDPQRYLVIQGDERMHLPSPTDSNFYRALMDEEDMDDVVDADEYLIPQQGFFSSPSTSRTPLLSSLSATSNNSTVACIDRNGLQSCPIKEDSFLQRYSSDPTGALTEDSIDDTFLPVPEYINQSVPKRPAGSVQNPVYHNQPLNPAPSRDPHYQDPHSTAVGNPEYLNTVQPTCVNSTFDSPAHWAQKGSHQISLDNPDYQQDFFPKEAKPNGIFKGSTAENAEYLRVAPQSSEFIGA
smiles,measurement,setting,value
Cc1c[nH]c(/C=C2\C(=O)Nc3ccccc32)c1CCC(=O)O [SU5402],Concentration at which epidermal growth factor receptor is not blocked,[1],greater than 50 μM
same,Concentration at which insulin receptor is not blocked,insulin receptor,greater than 50 μM
same,Effect on developing zebrafish embryos,zebrafish embryos,dramatic truncation of posterior structures
same,Effects on activities of numerous serine threonine kinases,serine threonine kinases,no effects
same,Survival and behavior in inhibitor solution,[2],survived normally and demonstrated no unusual behavior
same,Concentration that inhibits Flkl,[3],10 to 20 µM
same,BrdU: effect of Fgfr inhibitor on RNLE S phase reentry,C2C12 myotubes,No effect
same,msxb expression after 48 hour exposure,"zebrafish fin regenerate [4]; 24 or 48 hour fin regenerates exposed for 48 hours, n=18",not detected
same,Fins with detectable shh transcripts,"zebrafish fin regenerate [4]; 48 or 72 hour fin regenerates treated for 24 hours, of 18 fins",0
same,Epidermal wfgf expression,"zebrafish fin regenerate [4]; 48 or 72 hour regenerates, 24 hour application, n=16",No significant reduction
same,β-catenin expression,"zebrafish fin regenerate [4]; Ri-treated fins, n=7",normal
same,Fins with low levels of msxb expression,zebrafish fin regenerate [4]; [8],8
same,Fins with no detectable msxb expression,zebrafish fin regenerate [4]; [8],10
same,"msxb and msxc expression, 24 hour regenerates",zebrafish fin regenerate [4]; [9],extremely low or undetectable
same,"msxb and msxc expression, 48 hour regenerates",zebrafish fin regenerate [4]; [9],undetectable
same,Concentration at which platelet-derived growth factor receptor is not blocked,[5],greater than 50 μM
same,Fins that regenerated normally,[6]; [10],4
same,Fins with a regenerative block,[6]; [10],one
same,Fins with slight regenerative defects,[6]; [10],5
same,Fin regeneration,"[6]; 17 μM (5 mg/liter), 96 hours from amputation, all animals, n=9",complete regenerative blocks
same,Blastemal morphogenesis,[6]; [11],did not occur
same,Wound epidermis over the fin stumps,[6]; [11],consistently formed
same,Outgrowth of ongoing regenerates,[6]; treatment of 24-72 hour fin regenerates,inhibited further outgrowth
same,New bone deposition,[6]; treatment of ongoing fin regenerates,not interrupted
same,Proximal mesenchymal cell BrdU labeling,zebrafish fin regenerate [7]; 12-18 hours and 18-24 hours postamputation,Normal
same,Blastemal cell incorporation of BrdU,"zebrafish fin regenerate [7]; brief treatment during regenerative outgrowth, 40-48 hours postamputation",greatly reduced
